A short description of data set [1]: Stability of 5-position modified 2′-deoxycytidine nucleosides to nitrite solution (nitrite-mediated deamination), LC-MS time course. The format is physicochemical. On the procedure: A series of 5-position modified nucleosides were tested. Each was incubated at room temperature in 700 mM NaNO2, 1 M acetate buffer pH 5.5 and the stability assayed by LC-MS over a time course. […] Electron withdrawing substituents such as the fluoro or alkynyl substituents increase stability. Electron donating substituents such as methyl and hydroxymethyl decrease stability.
LC-MS was used to monitor nucleosides throughout a time course of incubation in 700 mM sodium nitrite at pH 5.5. Integration of UV chromatograms was performed, and the percentage of starting nucleoside plotted.
In addition to monitoring the persistence of the starting material UV peak, the deamination products can be monitored. Deamination products were identified by their mass signals and appearance under nitrite incubation (FIG. 5).

Data set [2] in a line: Stability test of 2′-deoxycytidine and 2′-deoxy-5-fluorocytidine to methoxylamine (1× ORS), LC/MS. Particulars: 1× ORS (methoxylamine, pH 5.5 acetate), room temperature (FIG. 9). It is filed as physicochemical. On the procedure:
Stability Test of 2′-Deoxycytidine and 2′-Deoxy-5-Fluorocytidine to methoxylamine Oxime removal solution buffer (2× ORS) was prepared from methyoxylamine hydrochloride (60 mg, 0.71 mmol), water (200 μL), pH 5.5 sodium acetate (200 μL) and 10 M sodium hydroxide (53.4 μL) and additional water (1.4 mL). A previously frozen sample of this buffer was further diluted with water by a factor of two to yield 1× ORS. Samples of 2′-deoxycytidine (˜0.5 mg) and 2′-deoxy-5-fluorocytidine (˜0.5 mg) were dissolved in 1 mL aliquots of the buffer. The samples were analysed by LC/MS immediately after making up the samples and at intervals while stored together at room temperature. Appearance of the reaction products 2′-deoxy-4(N)-methoxy cytidine (1) and 2′-deoxy-4(N)-methoxy-5-fluorocytidine (2) and a corresponding loss of starting material was observed. The corresponding loss of starting material relative to the reaction products is plotted on the graph below.
HPLC Method for LC/MS Analysis

The text below walks through data of patent US20230151046A1, “5-POSITION MODIFIED PYRIMIDINES” (Nuclera Nucleics Ltd., priority 2020, published 2023).

On to `Nc1nc(=O)n([C@H]2C[C@H](O)[C@@H](CO)O2)cc1F` [5-fluoro-2′-deoxycytidine], for which, in data set [1] (700 mM pH 5.5 nitrite, room temperature (FIG. 1)), the “rate of nitrite-mediated deamination, fold lower than the canonical deoxycytidine analogue” value amounted to 4 fold. Further, the “stability to methoxylamine treatment relative to canonical dC” value in data set [2] was about 10 ×.
With `CC#Cc1cn([C@H]2C[C@H](O)[C@@H](CO)O2)c(=O)nc1N` [5-propynyl, 5-propynyl-2′-deoxycytidine], the “stability to nitrite solution (in words)” value in data set [1] (700 mM NaNO2, 1 M acetate buffer pH 5.5, room temperature, relative to parent deoxycytidine) is reported as “increased stability”.
In the case of `Cc1cn([C@H]2C[C@H](O)[C@@H](CO)O2)c(=O)nc1N` [5-methyl-2′deoxycytidine, reference compound], in data set [1] (700 mM pH 5.5 nitrite, room temperature (FIG. 2)), the “rate of nitrite-mediated deamination, fold greater than the canonical deoxycytidine analogue” value worked out at 2 fold.
